Test results taken from patent US20170319562A1, “Compositions and Methods for Extended Therapy with Aminopyridines” (Acorda Therapeutics, Inc., priority 2009, published 2017).
Values joined by “and” are separate entries in the source; they are usually repeats but may differ in a detail not shown here. Identical values can stand only once.

Legend:
[1] = test system: patients with multiple sclerosis; test: MS-F203 Phase 3 double-blind placebo-controlled study; format: in vivo, human; conditions: 10 mg b.i.d.
From the text: A three stage, stepwise analysis based on this variable was used to establish a positive outcome on the primary endpoint and to establish its clinical meaningfulness with respect to overall walking ability. […] The second step was to register a significant improvement in MSWS-12 score for the Timed-Walk Responders when compared to Timed-Walk Non-Responders. The third step was to confirm maintenance of effect by testing whether those patients who responded to 4-aminopyridine-SR on the T25FW would still register a significant improvement in walking speed relative to placebo-treated patients at the last observed double-blind visit (i.e., the change from baseline in walking speed at the double-blind endpoint). FIG. 47 depicts walking speed improvements found in the MS-F203 study: In FIG. 47, the two graphs show the average change in walking speed from baseline at each of the four visits over the 3 months of double blind treatment. […] There was no indication of a loss of efficacy over, e.g., 12 weeks, 13 weeks, 14 weeks, 3 months of treatment in this study. The MS-F203 study established that the improvement in walking speed seen in treated Timed Walk Responders was maintained over, e.g., 12 weeks, 13 weeks, 14 weeks, 3 months of treatment. The enxtention data herein established that periods greater than those of this study were able to be effeicaious, thus as a durable and chronic therapy. […]

[2] = test system: patients with multiple sclerosis; test: MS-F204 Phase 3 double-blind placebo-controlled study
Description: Each of two Phase 3 studies (MS-F203 and MS-F204) was a parallel group, randomized, double-blind study comparing 4-aminopyridine-SR 10 mg b.i.d. with placebo. […] The 12-item Multiple Sclerosis Walking Scale and the Subject Global Impression and Clinician Global Impression were used to validate the clinical meaningfulness of the Timed-Walk response criterion. Secondary efficacy variables included walking speed, Lower Extremity Manual Muscle Test (LEMMT) score and the Ashworth spasticity score, the latter two averaged across eight and six lower extremity muscle groups, respectively. Duration of double-blind treatment on which efficacy was based was 14 weeks in the first study and 8 weeks in the second study. A two-week single blind placebo run-in period preceded the double-blind period.
In the MS-F204 study, the primary efficacy variable was also Responder status, based on consistent improvement in walking speed on the T25FW. A Timed-Walk Responder was defined as a patient with a faster walking speed for at least three of the first four double-blind visits as compared to the maximum walking speed for any of the pre-treatment visits and the post-treatment visit.
The secondary efficacy variable was average change from baseline in LEMMT score during the double-blind period, comparing 4-aminopyridine-treated Timed-Walk Responders and Non-Responders separately against the placebo-treated group. Other measures, the MSWS-12, SGI, CGI and Ashworth score, were included only for the purposes of a pooled analysis and comparison with the results of the other two trials.
This study in this Example was a 39 center, double-blind trial in patients with definite multiple sclerosis of any course type. Participants were randomized to 9 weeks of treatment with 4-aminopyridine (10 mg twice daily; n=120) or placebo (n=119). Response was defined as consistent improvement on the Timed 25-Foot Walk, with percentage of Timed Walk Responders (TWR) in each treatment group as the primary outcome. The last on-treatment visit provided data from 8-12 h post-dose, to examine maintenance of effect.
Study Design. This was a randomized, double-blind, placebo-controlled trial, as depicted in FIG. 14. Patients underwent screening without receiving any study medication and eligible patients returned one week later (Visit 0, see FIG. 14). Patients then entered a two-week, single-blind, placebo run-in period; Visit 1 occurred at the end of the first week of placebo run-in and Visit 2 at the end of the second week. Patients were instructed to take one blinded tablet (supplied in appropriate quantities at each clinic visit) every 12 hours during the treatment phase.
At Visit 2, patients were randomized equally to one of two treatment groups, sustained release 4-aminopyridine (4-aminopyridine-SR, 10 mg twice daily) or placebo, using a predetermined, computer-generated randomization schedule, blocked and stratified by treatment-site and pre-numbered treatment kits. Independent statistical, packaging and distribution contractors were used to maintain the blind for all other personnel.
Following randomization, patients returned every two weeks for evaluation at Visits 3-6. The patients were then instructed to return in one week for Visit 7 and to arrange the timing of their last dose of study medication such that the clinic visit would allow for assessments to be made between 10 and 12 hours after this last dose was taken. Following Visit 7, patients began a two-week period of no treatment, returning for follow-up assessments at Visit 8.

[3] = Pharmacokinetics after i.v. and p.o. 4-aminopyridine (2 mg/kg) in rats; conditions: single p.o. 2 mg/kg
From the text: Distribution: The volume of distribution at steady state (Vdss) in rats has been reported to approximate total body volume (not adjusted for bioavailability).

Structure (SMILES): Nc1ccncc1 [4-aminopyridine]
- improvement in walking speed across the treatment period ([1]; Timed Walk Non-responders): approximately 7%
- average increase in walking speed over the treatment period compared to baseline ([1]; Timed Walk Responders): approximately 25%
- Mantel-Haenszel Odds Ratio for Timed Walk Response vs placebo ([2]; 10 mg b.i.d.): 8.14
- Timed-Walk Responder rate ([2]; 10 mg b.i.d.): 42.9%
- plasma concentration below which there is a marked reduction in walking speed improvement ([2]; FIG. 27): below 13 ng/mL
- plasma concentration below which there is a reduction in walking speed improvement ([2]; FIG. 27): below 15 ng/mL
- average change from baseline in walking speed (Visits 3-6) ([2]; Timed Walk Non-Responders): 0.12 ft/sec
- average improvement in walking speed from baseline, double-blind efficacy period (Visits 3-6) ([2]; Timed Walk Non-responders, 10 mg b.i.d.): 6.0%
- average change from baseline in walking speed (Visits 3-6) ([2]; Timed Walk Responders): 0.51 ft/sec
- improvement from baseline walking speed at Visit 7, first evaluation (last on-treatment visit) ([2]; Timed Walk Responders): 25.7%
- average improvement in walking speed from baseline, double-blind efficacy period (Visits 3-6) ([2]; Timed Walk Responders, 10 mg b.i.d.): 24.7% and 25%
- mean improvement in walking speed at Visit 7 ([2]; Timed Walk Responders, 9-10 h post dose): 25.5%
- mean improvement in walking speed at Visit 7 ([2]; Timed Walk Responders, 10-11 h post dose): 25.3%
- mean improvement in walking speed at Visit 7 ([2]; Timed Walk Responders, 11-12 h post dose): 20.1% and 20%
- reduction of average plasma concentration at the first assessment at Visit 7 ([2]; human, in vivo, 10 mg b.i.d.): approximately 25%
- Vdss lower in females than in males [3]: 13%
